Laboratory results: the CheMixHub ionic liquid set
± gives the uncertainty stated by the source.

Assay: xn = mol fraction of the nth substance listed

CCCC[n+]1ccn(C)c1.N#C[C-](C#N)C#N + CCCC[n+]1ccn(C)c1.O=S(=O)([N-]S(=O)(=O)C(F)(F)F)C(F)(F)F
viscosity [mPa·s], 100 kPa
Conditions | x2 = 0 | x2 = 0.252 | x2 = 0.501 | x2 = 0.751
283.15 K | 58.2 ± 3 | 65.9 ± 3.4 | 77.3 ± 3.9 | 88.9 ± 4.5
288.15 K | 44.5 ± 2.3 | 50.6 ± 2.6 | 59.4 ± 3 | 68.5 ± 3.5
293.15 K | 34.9 ± 1.8 | 39.8 ± 2 | 46.8 ± 2.4 | 53.9 ± 2.7
298.15 K | 28 ± 1.4 | 31.9 ± 1.6 | 37.6 ± 1.9 | 43.1 ± 2.2
303.15 K | 22.9 ± 1.2 | 26.1 ± 1.3 | 30.7 ± 1.6 | 35.2 ± 1.8
308.15 K | 18.98 ± 0.97 | 21.6 ± 1.1 | 25.4 ± 1.3 | 29.1 ± 1.5
313.15 K | 15.99 ± 0.82 | 18.22 ± 0.93 | 21.4 ± 1.1 | 24.4 ± 1.2
318.15 K | 13.66 ± 0.7 | 15.53 ± 0.79 | 18.22 ± 0.92 | 20.7 ± 1
323.15 K | 11.8 ± 0.6 | 13.39 ± 0.68 | 15.72 ± 0.8 | 17.75 ± 0.9
328.15 K | 10.29 ± 0.53 | 11.66 ± 0.59 | 13.61 ± 0.69 | 15.38 ± 0.78
333.15 K | 9.06 ± 0.46 | 10.25 ± 0.52 | 11.9 ± 0.6 | 13.44 ± 0.68
338.15 K | 8.04 ± 0.41 | 9.08 ± 0.46 | 10.54 ± 0.53 | 11.84 ± 0.6
343.15 K | 7.19 ± 0.37 | 8.1 ± 0.41 | 9.38 ± 0.48 | 10.5 ± 0.53
348.15 K | 6.47 ± 0.33 | 7.27 ± 0.37 | 8.42 ± 0.43 | 9.39 ± 0.47
353.15 K | 5.86 ± 0.3 | 6.57 ± 0.33 | 7.55 ± 0.38 | 8.44 ± 0.43
358.15 K | 5.34 ± 0.27 | 5.97 ± 0.3 | 6.86 ± 0.35 | 7.62 ± 0.38
363.15 K | 4.88 ± 0.25 | 5.46 ± 0.28 | 6.29 ± 0.32 | 6.93 ± 0.35

NCCO + CCCC[n+]1ccn(C)c1.O=[N+]([O-])[O-] + O
Conditions | viscosity [mPa·s]
313 K, 100 kPa, x2 = 0, x3 = 0.8878 | 1.963 ± 0.05

CC[n+]1ccn(C)c1.COS(=O)(=O)[O-] + CCCO
viscosity [mPa·s], 101 kPa
Conditions | 283.15 K | 293.15 K | 303.15 K | 313.15 K | 323.15 K
x1 = 0.0562 | 3.83 ± 0.07 | 3 ± 0.07 | 2.38 ± 0.07 | 1.93 ± 0.07 | 1.58 ± 0.07
x1 = 0.1123 | 5.02 ± 0.08 | 3.88 ± 0.07 | 3.06 ± 0.07 | 2.47 ± 0.07 | 2.02 ± 0.07
x1 = 0.2201 | 8.55 ± 0.1 | 6.43 ± 0.09 | 4.9 ± 0.08 | 3.82 ± 0.07 | 3.15 ± 0.07
x1 = 0.3272 | 12.73 ± 0.44 | 9.53 ± 0.1 | 7.27 ± 0.09 | 5.71 ± 0.08 | 4.62 ± 0.08
x1 = 0.4282 | 19.32 ± 0.46 | 14.17 ± 0.44 | 10.7 ± 0.44 | 8.3 ± 0.1 | 6.6 ± 0.09
x1 = 0.5272 | 29.1 ± 0.49 | 20.65 ± 0.46 | 15.24 ± 0.45 | 11.61 ± 0.44 | 9.06 ± 0.1
x1 = 0.6285 | 40.72 ± 0.55 | 27.29 ± 0.48 | 19.7 ± 0.46 | 14.77 ± 0.45 | 11.43 ± 0.44
x1 = 0.7255 | 56.5 ± 1.9 | 37.58 ± 0.53 | 27.45 ± 0.49 | 20.14 ± 0.46 | 15.3 ± 0.45
x1 = 0.8203 | 82.4 ± 2.3 | 52.7 ± 1.9 | 35.86 ± 0.53 | 26.65 ± 0.48 | 19.78 ± 0.46
x1 = 0.9091 | 104.9 ± 3.1 | 63.6 ± 2 | 42.77 ± 0.57 | 30.19 ± 0.5 | 22.2 ± 0.47
x1 = 0.954 | 127.2 ± 4.2 | 77 ± 2.2 | 50.3 ± 1.9 | 35.02 ± 0.53 | 25.63 ± 0.48
x1 = 1 | 141 ± 5 | 84.1 ± 2.4 | 57.9 ± 2 | 39.54 ± 0.55 | 28.33 ± 0.49

CC[n+]1ccn(CCOC)c1.O=S(=O)([O-])C(F)(F)F + CCCO
viscosity [mPa·s], 101 kPa
Conditions | x1 = 0.0987 | x1 = 0.1999 | x1 = 0.2982 | x1 = 0.3994 | x1 = 0.499 | x1 = 0.599 | x1 = 0.698 | x1 = 0.801 | x1 = 0.899 | x1 = 1
288.15 K | 4.257 ± 0.098 | 6.11 ± 0.17 | 10 ± 0.32 | 14.17 ± 0.61 | 23.2 ± 1 | 31.9 ± 1.1 | 45.2 ± 1.4 | 63.3 ± 1.8 | 88.6 ± 2.7 | 121 ± 4.5
293.15 K | 3.751 ± 0.084 | 4.78 ± 0.14 | 8.54 ± 0.29 | 12.17 ± 0.5 | 19.23 ± 0.83 | 26.22 ± 0.93 | 36.7 ± 1.1 | 50.5 ± 1.4 | 69.1 ± 1.9 | 92.5 ± 2.9
298.15 K | 3.282 ± 0.073 | 4.18 ± 0.12 | 7.36 ± 0.25 | 10.61 ± 0.42 | 16.22 ± 0.67 | 21.94 ± 0.76 | 30.16 ± 0.92 | 41 ± 1.1 | 55.3 ± 1.4 | 72.5 ± 2
303.15 K | 2.914 ± 0.065 | 3.72 ± 0.11 | 6.41 ± 0.22 | 9.35 ± 0.34 | 13.09 ± 0.55 | 18.61 ± 0.65 | 25.17 ± 0.75 | 33.69 ± 0.91 | 44.8 ± 1.2 | 57.9 ± 1.5
308.15 K | 2.594 ± 0.059 | 3.59 ± 0.098 | 5.63 ± 0.19 | 8.33 ± 0.29 | 11.23 ± 0.46 | 15.98 ± 0.55 | 21.29 ± 0.62 | 28.1 ± 0.75 | 36.86 ± 0.95 | 47.3 ± 1.2
313.15 K | 2.321 ± 0.053 | 3.205 ± 0.087 | 4.98 ± 0.17 | 7.49 ± 0.26 | 10.09 ± 0.39 | 13.81 ± 0.46 | 18.34 ± 0.53 | 23.8 ± 0.63 | 30.74 ± 0.79 | 39 ± 1
318.15 K | 2.086 ± 0.048 | 3.097 ± 0.081 | 4.43 ± 0.15 | 6.8 ± 0.22 | 8.6 ± 0.32 | 12 ± 0.4 | 15.84 ± 0.45 | 20.29 ± 0.54 | 25.97 ± 0.67 | 32.59 ± 0.85

CCC[N+]1(C)CCCC1.N#C[N-]C#N + CCC[N+]1(C)CCCC1.O=S(=O)([N-]S(=O)(=O)C(F)(F)F)C(F)(F)F
333.15 K, 101 kPa
Conditions | electrical conductivity [S/m] | viscosity [mPa·s]
x1 = 0.25 | 1.38 ± 0.14 | 16.8 ± 1.7
x1 = 0.75 | 2.72 ± 0.27 | 13.2 ± 1.4
